Assay results reported in patent US20100248265A1, “COMPOSITIONS AND METHODS FOR DIAGNOSIS AND TREATMENT OF CANCER” (The Salk Institute for Biological Studies, priority 2009, published 2010).

How the values were obtained:
mTOR [1] = molecular target: mTOR (Homo sapiens, UniProt P42345); test: Western blot for mTOR autophosphorylation at S2481 in cells treated with mTOR kinase inhibitors; type: cell-based; details: actively growing Hela and MDA-MB-468 cells; 1 h at 37° C.
Method: (§4) Whole cell lysates were then analyzed for mTOR phosphorylation at S2481. Phosphorylation of the mTORC1 substrate S6K at T389 and the mTORC2 substrate Akt at S473 were analyzed as controls.

Akt = test: Western blot for mTORC2 substrate Akt phosphorylated at S473 in cells treated with mTOR kinase inhibitors; details: 1 h at 37° C.
Method: as §4

S6K = test: Western blot for mTORC1 substrate S6K phosphorylated at T389 in cells treated with mTOR kinase inhibitors; details: 1 h at 37° C.
Method: as §4

mTOR [2] = test: Western blot for mTOR autophosphorylation at S2481 in cells treated with mTOR kinase inhibitors; type: cell-based; details: actively growing MEFs, U2OS, Hela and MDA-MB-468 cells; 1 h at 37° C.
Method: as §4

[3] = system: ER positive breast cancer; details: ER positive breast cancer patients; randomized trial, endocrine therapy plus everolimus; cited from earlier work
breast cancer = details: unselected breast cancer patients; cited from earlier work
mTORC2 = molecular target: T1, mTORC2 (Homo sapiens, UniProt P42345+P62942); test: Rictor (and Raptor) immunoprecipitates analyzed by immunoblotting for bound mTOR (mTORC2 assembly); type: cell-based; details: serum-starved HEK293 cells; 200 nM insulin for 5 min.
T1 construct: endogenous in cells; host or cells: HEK293, U2OS, MDA-MB-231, MDA-MB-468, SKBR3, A549
Text: (§1) Antibodies and reagents. The following antibodies were purchased from Cell Signaling Technology: phospho-mTOR(S2448 and S2481), Akt and phospho-Akt (S473) rabbit polyclonal antibodies. Phospho-S6K (T389) and mTOR (mTab1) rabbit polyclonal antibodies were purchased from Millipore. Rictor and mSin1 rabbit polyclonal antibodies were purchased from Bethyl Laboratories. The anti-Raptor rabbit antiserum was developed with the antibody service from Invitrogen utilizing the peptide […], amino acid sequence 918-933 of human Raptor. Rapamycin was purchased from Sigma. Insulin and IGF-1 were purchased from Research Diagnostics, Inc.
(§2) Cell culture, cell lysis and immunoprecipitation. […]
(§3) Cells were rinsed 2× with cold PBS and lysed in 1 ml 50 mM Hepes pH 7.5, 150 mM NaCl, 10% glycerol, 0.3% Chaps (v/v), 1.5 mM MgCl2, 1 mM EGTA, 100 mM NaF, 500 μM sodium orthovanadate, 10 μg/ml aprotinin, and 10 μg/ml leupeptin per 10 cm tissue culture dish. […] Protein concentrations were determined using the Bio-Rad DC Protein Assay kit according to manufacturer's protocol. […]
Because S2481 phosphorylation requires intact mTORC2, we tested whether prolonged rapamycin treatment had any effect on S2481 phosphorylation. Whole cell lysates from control and insulin-stimulated cells treated with 100 nM rapamycin for either one or 24 hr were analyzed for phosphorylation of mTOR on S2448 and S2481. […]

mTOR [4] = test: Immunoblot of whole cell lysates for mTOR phosphorylated on S2481 (rapamycin / insulin treatment); type: cell-based; details: serum-starved HEK293 cells; 200 nM insulin for 5 min.
Text: Antibodies and reagents. The following antibodies were purchased from Cell Signaling Technology: phospho-mTOR(S2448 and S2481), Akt and phospho-Akt (S473) rabbit polyclonal antibodies. Phospho-S6K (T389) and mTOR (mTab1) rabbit polyclonal antibodies were purchased from Millipore. Rictor and mSin1 rabbit polyclonal antibodies were purchased from Bethyl Laboratories. The anti-Raptor rabbit antiserum was developed with the antibody service from Invitrogen utilizing the peptide [sequence], amino acid sequence 918-933 of human Raptor. Rapamycin was purchased from Sigma. Insulin and IGF-1 were purchased from Research Diagnostics, Inc.
Lentivirus-mediated gene knockdown. […]
Virus-containing supernatants were collected 48 hr. after transfection. Cells were infected twice in the presence of 1 μg/ml polybrene, selected for puromycin resistance and analyzed 48-72 hr. post-infection. […]

mTOR [5] = molecular target: T2, mTOR (Homo sapiens, UniProt P42345+P62942); test: Immunoblot of whole cell lysates for mTOR phosphorylated on S2448 (rapamycin / insulin treatment); type: cell-based; details: serum-starved HEK293 cells; 200 nM insulin for 5 min.
T2 construct: specifically deplete endogenous mTOR, Rictor or Raptor were expressed in HEK293 cells; endogenous in cells
Text: as §1, §2, §3
Because S2481 phosphorylation requires intact mTORC2, we tested whether prolonged rapamycin treatment had any effect on S2481 phosphorylation. Whole cell lysates from control and insulin-stimulated cells treated with 100 nM rapamycin for either one or 24 hr were analyzed for phosphorylation of mTOR on S2448 and S2481.

[6] = actively growing Hela and MDA-MB-468 cells
[7] = actively growing MEFs, U2OS, Hela and MDA-MB-468 cells

Compound | phosphorylation of mTORC2 substrate Akt at S473 (Akt; [6]) | phosphorylation of mTORC2 substrate Akt at S473 (Akt; [7]) | phosphorylation of mTORC1 substrate S6K at T389 (S6K; [6]) | phosphorylation of mTORC1 substrate S6K at T389 (S6K; [7]) | mTOR autophosphorylation at S2481 (mTOR [2]) | further results
COc1ccc2c(c1OC)N=C(NC(=O)c1cccnc1)N1CCN=C21 [PIK-90] | – | – | – | – | – | mTOR autophosphorylation at S2481 (mTOR [1]): reduction
CC(C)n1nc(-c2cc3cc(O)ccc3[nH]2)c2c(N)ncnc21 [PP242] | inhibited | inhibited | inhibited | inhibited | abolished | –
CCC(=O)N1CCN(c2ccc(-n3c(=O)ccc4cnc5ccc(-c6cnc7ccccc7c6)cc5c43)cc2C(F)(F)F)CC1 [Torin1] | inhibited | inhibited | inhibited | inhibited | abolished | –
CO[C@H]1C[C@@H]2CC[C@@H](C)[C@@](O)(O2)C(=O)C(=O)N2CCCC[C@H]2C(=O)O[C@H]([C@H](C)C[C@@H]2CC[C@@H](OCCO)[C@H](OC)C2)CC(=O)[C@H](C)/C=C(\C)[C@@H](O)[C@@H](OC)C(=O)[C@H](C)C[C@H](C)/C=C/C=C/C=C/1C [everolimus] | – | – | – | – | – | effect on efficacy of endocrine therapy [3]: significantly increases the efficacy of endocrine therapy
CO[C@H]1C[C@@H]2CC[C@@H](C)[C@@](O)(O2)C(=O)C(=O)N2CCCC[C@H]2C(=O)O[C@H]([C@H](C)C[C@@H]2CC[C@@H](OC(=O)C(C)(CO)CO)[C@H](OC)C2)CC(=O)[C@H](C)/C=C(\C)[C@@H](O)[C@@H](OC)C(=O)[C@H](C)C[C@H](C)/C=C/C=C/C=C/1C [temsirolimus] | – | – | – | – | – | patients who responded to treatment (breast cancer): 10%
insulin: growth factor used to stimulate serum-starved cells; purchased from Research Diagnostics, Inc. | – | – | – | – | – | amount of mTOR associated with either Raptor or Rictor (mTORC2): did not change; S2481 phosphorylation of mTOR (mTOR [4]): increased; S2448 phosphorylation of mTOR (mTOR [5]): increased
